Experimental data taken from patent US7772212B2, “Isomaltooligosaccharides to inhibit avian pathogenic intestinal bacteria” (priority 2003, dated 2010).

How the values were obtained:
[1] = test system: α-Glucosidase (maltase; EC 3.2.1.20); test: Kinetic assay for α-glucosidase; type: biochemical; conditions: 0%, 0.25%, 0.5% test sugar; maltose 0, 50, 100, 250 mM; 37° C., pH 7
Method: α-Glucosidase (maltase; EC 3.2.1.20), β-NAD, glucose dehydrogenase (EC 1.1.147) and other reagent chemicals were obtained from the Sigma Chemical Co. (St. Louis, Mo.). The kinetic assays were based on the following reaction;
The kinetic assays were all performed in 96-well plates and read at wavelength 320 nm in a SPECTRAmax Plus microtiter plate reader (Molecular Devices Corp., Sunnyvale, Calif.) at 37° C. The software package Softmax™ was used for data analysis. α-Glucosidase (maltase; EC 3.2.1.20), β-NAD, and glucose dehydrogenase (EC 1.1.147) solutions were prepared with 0.1M K2HPO4 (pH 7) buffer. Each well contained 25 μl of 0.13 IU/ml glucose dehydrogenase, 25 μl of 1.65 IU/ml of α-glucosidase, and 20 μl of 12 mM of G-NAD in a total volume of 200 μl with different combinations of sugars and 0.1M K2HPO4 (pH 7) buffer. Absorbance change with time was measured at 320 nm.
In order to determine the role of branching in the inhibition, the Ki values for panose and isomaltotriose were also determined.

S. typhimurium = test: Growth test with panose and maltooligosaccharides; type: cell-based, Salmonella typhimurium; conditions: combinations of panose and maltooligosaccharides (DP 4 to DP 10), anaerobic, 37° C.
Method: (§1) To further determine whether Leuconostoc IMO acts as a starch-metabolism inhibitor, B. longum and S. typhimurium were grown in different combinations of panose and maltooligosaccharides (from DP 4 to DP 10). As the concentration of panose in the growth medium increased, the growth of S. typhimurium slowed but B. longum growth increased. (FIGS. 11A and 11B, respectively).

B. longum = test: Growth test with panose and maltooligosaccharides; type: cell-based, Bifidobacterium longum; conditions: combinations of panose and maltooligosaccharides (DP 4 to DP 10), anaerobic, 37° C.
Method: as §1

Row | Structure (SMILES) | Inhibition of α-glucosidase (maltase) activity [1] | Growth of S. typhimurium as panose concentration in medium increased (S. typhimurium) | Growth of B. longum as panose concentration in medium increased (B. longum)
1 | OC[C@H]1O[C@H](OC[C@H]2O[C@H](OC[C@H]3OC(O)[C@H](O)[C@@H](O)[C@@H]3O)[C@H](O)[C@@H](O)[C@@H]2O)[C@H](O)[C@@H](O)[C@@H]1O (stereo partly shown) [Isomaltotriose, isomaltotriose] | not inhibitory |  | 
2 | OC[C@H]1O[C@H](OC[C@H]2O[C@H](O[C@H]3[C@H](O)[C@@H](O)C(O)O[C@@H]3CO)[C@H](O)[C@@H](O)[C@@H]2O)[C@H](O)[C@@H](O)[C@@H]1O (stereo partly shown) [panose] | showed an inhibition | slowed | increased
